From article PMC3914206

Key:
Type in all cases: binding
[1] = target: T1, panel of 442 kinases (Homo sapiens, UniProt P07948); details: Compound Concentration 10 µM
T1 construct: purchased KINOMEscan
Text: (§1) We assessed the selectivity of members of this scaffold using the KINOMEscan methodology across a near comprehensive panel of 442 kinases [[18,27]].

[2] = target: T2, panel of 442 kinases (Homo sapiens, UniProt Q9HCP0); details: Compound Concentration 10 µM
T2 construct: purchased KINOMEscan
Text: as §1

[3] = target: T3, panel of 442 kinases (Homo sapiens, UniProt Q9UEW8); details: kinase STK39; compound concentration 10 µM
T3 construct: purchased KINOMEscan
Text: as §1

T1 sequence (P07948 whole entry): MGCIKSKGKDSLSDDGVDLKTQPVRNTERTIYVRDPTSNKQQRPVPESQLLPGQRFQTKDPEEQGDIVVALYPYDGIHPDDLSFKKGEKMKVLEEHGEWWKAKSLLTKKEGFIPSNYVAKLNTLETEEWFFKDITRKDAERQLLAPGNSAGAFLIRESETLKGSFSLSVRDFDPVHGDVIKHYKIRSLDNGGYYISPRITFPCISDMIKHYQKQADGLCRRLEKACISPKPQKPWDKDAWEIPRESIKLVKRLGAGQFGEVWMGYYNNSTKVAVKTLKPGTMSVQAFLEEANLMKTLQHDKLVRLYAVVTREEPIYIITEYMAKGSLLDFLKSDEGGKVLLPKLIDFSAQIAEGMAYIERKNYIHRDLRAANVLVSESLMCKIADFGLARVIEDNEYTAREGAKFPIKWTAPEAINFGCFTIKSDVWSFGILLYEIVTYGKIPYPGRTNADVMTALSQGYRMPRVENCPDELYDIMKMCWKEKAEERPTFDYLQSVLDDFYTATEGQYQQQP
T2 sequence (Q9HCP0 whole entry): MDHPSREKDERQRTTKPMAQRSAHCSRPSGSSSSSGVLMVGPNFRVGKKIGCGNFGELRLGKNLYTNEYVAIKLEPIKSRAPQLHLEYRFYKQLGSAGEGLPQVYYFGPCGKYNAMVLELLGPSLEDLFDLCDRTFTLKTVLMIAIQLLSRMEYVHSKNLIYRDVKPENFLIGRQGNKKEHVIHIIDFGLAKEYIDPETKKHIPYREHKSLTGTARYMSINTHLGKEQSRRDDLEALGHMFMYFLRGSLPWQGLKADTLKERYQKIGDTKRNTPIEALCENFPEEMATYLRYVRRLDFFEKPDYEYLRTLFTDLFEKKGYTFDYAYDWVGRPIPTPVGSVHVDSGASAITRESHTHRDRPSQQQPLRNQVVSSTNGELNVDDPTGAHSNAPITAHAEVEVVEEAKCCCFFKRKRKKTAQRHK

CCOc1cc(C(=O)N2CCC(N3CCN(C)CC3)CC2)ccc1Nc1ncc2c(n1)N(C1CCCC1)c1ccccc1C(=O)N2C [Compound 26]
KINOMEscan: LYN [1]: 100 | KINOMEscan: CSNK1G1 [2]: 98 | % Ctrl, STK39 [3]: 100 % Ctrl

COc1cc(C(=O)N2CCC(N3CCN(C)CC3)CC2)ccc1Nc1ncc2c(n1)N(C1CCCC1)c1ccccc1C(=O)N2C [Compound 25, 11-cyclopentyl-2-((2-methoxy-4-(4-(4-methylpiperazin-1-yl)piperidine-1-carbonyl)phenyl)amino)-5-methyl-5H-benzo[e]pyrimido[5,4-b][1,4]diazepin-6(11H)-one]
KINOMEscan: LYN [1]: 85 | KINOMEscan: CSNK1G1 [2]: 73 | % Ctrl, STK39 [3]: 100 % Ctrl

COc1cc(C(=O)N2CCC(N3CCN(C)CC3)CC2)ccc1Nc1ncc2c(n1)N1CCc3cccc(c31)C(=O)N2C [Compound 24]
KINOMEscan: LYN [1]: 83 | % Ctrl, STK39 [3]: 100 % Ctrl

COc1cc(C(=O)N2CCC(N3CCN(C)CC3)CC2)ccc1Nc1ncc2c(n1)N(C)c1ccccc1C(=O)N2C [15 (LRRK2-IN-1)]
KINOMEscan: LYN [1]: 100 | KINOMEscan: CSNK1G1 [2]: 100 | % Ctrl, STK39 [3]: 39 % Ctrl
